The text below walks through data of US5739171A, “Method for promoting animal growth” (priority 1993, dated 1998).

Read-outs that look alike come from different tables or passages of the source.

A short description of series [1]: acute toxicity by oral administration (LD50), rats. The note with it: rat, in vivo. The text has this:
Safety of the effective components of the composition of the present invention will be given hereunder. For example, acute toxicity by oral administration of sodium o-nitrophenol, sodium p-nitrophenol and sodium 5-nitroguaiacol is as follows:
Acute toxicity by oral administration is low. In addition, it has been also confirmed that those compounds are without problem in terms of toxicity by chronic toxicity test, teratogenic test and carcinogenic test. Further, as mentioned above, those compounds have been used as plant growth regulators and hair growth promoters throughout the world. In the past, they were used as injections but there was no example of adverse affection on the animals who took the plants to which they were applied, on the persons who were injected therewith and on the persons using the hair growth promoters containing them. Thus, their safety in humans has been practically confirmed. As mentioned above, o-nitrophenol, p-nitrophenol, 5-nitroguaiacol and salts thereof which are active ingredient(s) of the methods for growth promoting of the present invention have high safety.

The subject of the next series is Tilapia fry. The class given is in vivo. Conditions: feed with 10 ppm of a single salt; for Body Weight Increase per 1 Tilapia after 4 Weeks: control 3.78; for Body Weight Increase per 1 Tilapia after 8 Weeks: control 10.10. As for the experimental part:
Tilapia fry with average body weight 2 g were used. Commercial feed for tilapia was given twice a day (morning and evening) in an amount of 5 to 8% of the body weight. The control group was given the commercial feed only, while the treated groups were given the commercial feed with the addition of the test compound(s) o-nitrophenol, p-nitrophenol and/or 5-nitroguaiacol, in the amount(s) shown in Table 3. Body weights were measured after 4 and 8 weeks.

Where [2] appears, read: female rats, read-out: LD50 for rats (female).
Setting [3] is: male rats, read-out: LD50 for rats (male).

Take `O=[N+]([O-])c1ccc(O)cc1.[Na]` [Sodium p-nitrophenol, sodium p-nitrophenol]: the LD50 in series [1] (setting [2]) was 482 mg/kg. Moreover, the LD50 in series [1] (setting [3]) is 1250 mg/kg. Further, in the series on Tilapia fry, the “Body Weight Increase per 1 Tilapia after 4 Weeks” value is reported as 4.04 g; the “Body Weight Increase per 1 Tilapia after 4 Weeks, relative to control (100)” value is recorded as 107; the “Body Weight Increase per 1 Tilapia after 8 Weeks” value came out at 10.61 g; the “Body Weight Increase per 1 Tilapia after 8 Weeks, relative to control (100)” value worked out at 105.
On to `COc1ccc([N+](=O)[O-])cc1O` [Sodium 5-nitroguaiacol, sodium 5-nitroguaiacol], for which, in series [1] (setting [2]), the LD50 came out at 1270 mg/kg. Moreover, the LD50 in series [1] (setting [3]) amounted to 3100 mg/kg. Moreover, in the series with Tilapia fry, the “Body Weight Increase per 1 Tilapia after 4 Weeks” value came to 4.08 g; the “Body Weight Increase per 1 Tilapia after 4 Weeks, relative to control (100)” value is recorded as 108; the “Body Weight Increase per 1 Tilapia after 8 Weeks” value came out at 11.09 g; the “Body Weight Increase per 1 Tilapia after 8 Weeks, relative to control (100)” value turned out to be 110.
`O=[N+]([O-])c1ccccc1O.[Na]` [Sodium o-nitrophenol, sodium o-nitrophenol]: in series [1] (setting [2]), the LD50 is 1460 mg/kg. Further, the median lethal dose (LD50) in series [1] (setting [3]) amounted to 2050 mg/kg. For the same compound, in the series on Tilapia fry, the “Body Weight Increase per 1 Tilapia after 4 Weeks” value is recorded as 3.97 g; the “Body Weight Increase per 1 Tilapia after 4 Weeks, relative to control (100)” value came out at 105; the “Body Weight Increase per 1 Tilapia after 8 Weeks” value is recorded as 10.71 g; the “Body Weight Increase per 1 Tilapia after 8 Weeks, relative to control (100)” value is 106.

What is called LD50 is the dose at which mortality reaches 50%.
